Measurements published in patent EP0525686A1, “Dimethylacetylacetic acid amides, process for their preparation and pharmaceutical compositions” (LUITPOLD PHARMA GmbH, priority 1991, dated 1993).

Columns and labels:
[1] = test system: Carrageenin-Lösung erzeugte Ödeme der rechten Hinterpfote; assay: Carrageenan-induced paw oedema test for anti-inflammatory activity; type: in vivo, Wistar-Ratten; settings: 200 mg/kg p.o., 30 min before carrageenan; paw volume 3 h after injection; female Wistar rats, n=10
Source text: Die Prüfung auf antientzündliche Wirkung (C. A. Winter, E. A. Risley, G. W. Nuss; Proc. Soc. Exp. Biol. Med. 111, 544 (1962)) erfolgte durch mit 0.5 %iger wäßriger Carrageenin-Lösung erzeugte Ödeme der rechten Hinterpfote an Gruppen mit je zehn nüchternen, ca. 150 g schweren weiblichen Wistar-Ratten. Dazu wurden mit einem Plethysmometer die Volumina der markierten rechten Hinterpfote unmittelbar vor und drei Stunden nach der Injektion der Carrageenin-Lösung gemessen. Die zu prüfenden Substanzen wurden 30 Minuten vor Erzeugung des Ödems als Gummi arabicum Suspension mittels einer Schlundsonde p.o. verabreicht. Die Kontrollgruppe erhielt reines Leitungswasser. Die Einzeldosis pro Tier lag bei 200 mg/kg Körpergewicht.
Zur Auswertung wurde die prozentuale Zunahme des Pfotenvolumens für jedes Tier nach folgender Formel berechnet: [formula] dann wurden Mittelwerte und Streuung für alle so berechneten Werte einer Gruppe bestimmt. Der Unterschied zwischen der mit Prüfsubstanz behandelten Versuchs- und der zugehörigen unbehandelten Gruppe wurde nach der Formel [formula] ermittelt. Die statistische Auswertung erfolgte nach den üblichen Verfahren.

[2] = Acute toxicity (LD50), tolerability; settings: in vivo; species and route not given
Experimental: Im Zusammenhang mit der vorliegenden Erfindung wurde überraschend gefunden, daß Substanzen der allgemeinen Formel I wertvolle pharmakologische Eigenschaften aufweisen und insbesondere als antientzündliche Wirkstoffe eingesetzt werden können. Neben der guten Verträglichkeit - die LD50 der Verbindung aus Beispiel 1 liegt beispielsweise bei über 1000 mg/kg - zeichnen sich Verbindungen der allgemeinen Formel I durch nützliche analgetische und antipyretische Eigenschaften aus. Insbesondere eignen sich die erfindungsgemäßen Verbindungen zur Behandlung entzündlicher Erkrankungen bei Mensch und Tier. Die Krankheitsbilder, die mit den erfindungsgemäßen Verbindungen behandelt werden können, umfassen alle entzündlichen Zustände, wie zum Beispiel Entzündungen der Haut wie Radiodermatitis, Psoriasis, Akne, Ekzeme, Entzündungen am Auge wie zum Beispiel Conjunktivitis, Entzündungen im Hals-Nasen-Ohren-Bereichwie zum Beispiel katarralische Infektionen der oberen Luftwege und Sinusitis, entzündliche Erkrankungen des Gefäßsystems wie Thrombophlebitis oder Vaskulitis und Entzündungen des Nervensystems wie zum Beispiel Neuralgien oder Neuritiden. Bevorzugt zu behandelnde entzündliche Erkrankungen sind Entzündungen im Bereich des Bewegungsapparates wie Arthritiden, Arthrose, Tendinitis, Tendopathien, Kontusionen und Distorsionen, Weichteilrheumatismus, Gicht und Lumbalgien. […]

Row | Compound | % Hemmung [1] [%] | LD50 [2] [mg/kg]
1 | COc1ccccc1NC(=O)CC(=O)C(C)C [Beispiel 1, N-(2-Methoxyphenyl) 4-methylpentan-3-on-säureamid] | 52 | > 1000
2 | CC(C)C(=O)CC(=O)Nc1nccs1 [Beispiel 2, N-(2-Thiazolyl)-4-methylpentan-3-on-säureamid] | 32 | –
3 | COc1ccc(NC(=O)CC(=O)C(C)C)cc1 [Beispiel 3, N-(4-Methoxyphenyl)-4-methylpentan-3-on-säureamid] | 27 | –
4 | COc1ccc(C)cc1NC(=O)CC(=O)C(C)C [Beispiel 4, N-(2-Methoxy-5-methylphenyl)-4-methylpentan-3-on-säureamid] | 26 | –
